This is an account of results in patent US9006433B2, “Substituted pyrimidines” (Merck Sharp & Dohme Corp., priority 2010, dated 2015).

A word on the IC50: it is the concentration needed to halve the response being measured. A lower IC50 goes with inhibition by little substance.

Molecules are shown by their SMILES.

For this experiment, the target named is T1, PHD2 (Homo sapiens, UniProt Q9GZT9).
T1 construct: FLAG-tagged full length PHD2 expressed in and purified from baculovirus-infected Sf9 cells; FLAG; made in house; host or cells: baculovirus-infected Sf9 cells
T1 sequence (Q9GZT9 whole entry, species assumed): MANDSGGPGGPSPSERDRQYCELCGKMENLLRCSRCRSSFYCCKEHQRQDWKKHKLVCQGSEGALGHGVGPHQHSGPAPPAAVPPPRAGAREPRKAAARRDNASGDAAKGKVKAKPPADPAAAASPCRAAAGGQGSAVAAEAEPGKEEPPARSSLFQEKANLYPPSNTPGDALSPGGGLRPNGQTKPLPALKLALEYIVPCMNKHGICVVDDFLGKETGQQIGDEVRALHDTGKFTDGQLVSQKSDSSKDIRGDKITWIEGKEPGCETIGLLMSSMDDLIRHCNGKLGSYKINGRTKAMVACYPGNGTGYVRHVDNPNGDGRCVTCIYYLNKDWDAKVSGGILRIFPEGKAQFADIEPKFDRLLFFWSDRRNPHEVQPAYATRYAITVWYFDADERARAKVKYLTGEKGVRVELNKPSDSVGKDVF
Put plainly: PHD2 inhibition assay (time resolved fluorescence, HIF-1α peptide hydroxylation / VHL complex detection). It counts as biochemical. The note with it: FLAG-tagged full length PHD2; 0.2 μM 2-oxoglutarate, 0.5 μM HIF-1α peptide. Summed up:
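FLAG-tagged full-length PHD2 from Sf9 (0.15 μg/ml) preincubated with compound 30 min at room temperature in pH 7.4 buffer with ferrous sulfate, ascorbate and catalase. Reaction run 2 hr with 0.2 μM 2-oxoglutarate and 0.5 μM biotinylated HIF-1α peptide; hydroxylation detected by (His)6-VHL binding as TR-FRET 665/620 nm ratio, percent inhibition versus uninhibited control.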
In turn, `CC(C)(C)CCOC(=O)Nc1cnc(-n2cccn2)nc1O` [Compound 5-15, 3,3-dimethylbutyl 4-hydroxy-2-(1H-pyrazol-1-yl)pyrimidin-5-ylcarbamate] registered an IC50 of 20 to 100 nM.

`O=C(Nc1cnc(-n2cccn2)nc1O)OCCc1ccccc1` [Compound 5-16, phenethyl 4-hydroxy-2-(1H-pyrazol-1-yl)pyrimidin-5-ylcarbamate] returned an IC50 of 20 to 100 nM.

Compound `O=C(Nc1cnc(-n2cccn2)nc1O)Oc1ccc(-c2ccccc2)cc1` [Compound 5-17, biphenyl-4-yl 4-hydroxy-2-(1H-pyrazol-1-yl)pyrimidin-5-ylcarbamate] returned an IC50 of 100 to 10000 nM.

Regarding `O=C(Nc1cnc(-n2cccn2)nc1O)Oc1ccc2ccccc2c1` [Compound 5-18, naphthalen-2-yl 4-hydroxy-2-(1H-pyrazol-1-yl)pyrimidin-5-ylcarbamate], the IC50 was in the range of 100 to 10000 nM.

`Oc1nc(-n2cccn2)ncc1NC(=S)NC(c1ccccc1)c1ccccc1` [Compound 6-1, 1-benzhydryl-3-(4-hydroxy-2-(1H-pyrazol-1-yl)pyrimidin-5-yl)thiourea] had an IC50 of 0.5 to 20 nM.

Take `CC(NC(=S)Nc1cnc(-n2cccn2)nc1O)c1ccccc1` (stereo not shown) [Compound 7-1, 1-(4-hydroxy-2-(1H-pyrazol-1-yl)pyrimidin-5-yl)-3-(1-phenylethyl)thiourea]: the IC50 is 0.5 to 20 nM.

`CC(C)(NC(=S)Nc1cnc(-n2cccn2)nc1O)c1ccccc1` [Compound 8-1, 1-(4-hydroxy-2-(1H-pyrazol-1-yl)pyrimidin-5-yl)-3-(2-phenylpropan-2-yl)thiourea] came in with an IC50 of 20 to 100 nM.

Turning to `O=C(OC(c1ccccc1)c1ccccc1)c1cnc(-n2cccn2)nc1O` [Compound 9-1, benzhydryl 4-hydroxy-2-(1H-pyrazol-1-yl)pyrimidine-5-carboxylate], the IC50 lay within 100 to 10000 nM.

In turn, `O=C(Nc1cnc(-c2ccccn2)nc1O)C(c1ccccc1)c1ccccc1` [Compound 10-1, N-(4-hydroxy-2-(pyridin-2-yl)pyrimidin-5-yl)-2,2-diphenylacetamide] came in with an IC50 of 20 to 100 nM.

In turn, `Oc1nc(-n2cccn2)ncc1-c1cnn(-c2ccccc2)c1` [Compound 11-1, 5-(1-phenyl-1H-pyrazol-4-yl)-2-(1H-pyrazol-1-yl)pyrimidin-4-ol] yielded an IC50 of 100 to 10000 nM.

Consider `Oc1nc(-n2cccn2)ncc1-c1cnn(Cc2ccccc2)c1` [Compound 11-2, 5-(1-benzyl-1H-pyrazol-4-yl)-2-(1H-pyrazol-1-yl)pyrimidin-4-ol], for which the IC50 is 100 to 10000 nM.

In the case of `Oc1nc(-n2cccn2)ncc1-c1ccccc1` [Compound 11-3, 5-phenyl-2-(1H-pyrazol-1-yl)pyrimidin-4-ol], the IC50 was in the range of 100 to 10000 nM.

`O=C(Cc1cnc(-n2cccn2)nc1O)Nc1ccc(Cl)cc1` [Compound 12-1, N-(4-chlorophenyl)-2-(4-hydroxy-2-(1H-pyrazol-1-yl)pyrimidin-5-yl)acetamide] displayed an IC50 of 100 to 10000 nM.

In the case of `O=C(Cc1cnc(-n2cccn2)nc1O)NC1CCCCC1` [Compound 12-2, N-cyclohexyl-2-(4-hydroxy-2-(1H-pyrazol-1-yl)pyrimidin-5-yl)acetamide], the IC50 lay in the range of 100 to 10000 nM.

Compound `CC(C)NC(=O)Cc1cnc(-n2cccn2)nc1O` [Compound 12-3, 2-(4-hydroxy-2-(1H-pyrazol-1-yl)pyrimidin-5-yl)-N-isopropylacetamide] yielded an IC50 of 100 to 10000 nM.

Take `Cc1ccc(S(=O)(=O)NC(=O)c2cnc(-c3cccnn3)nc2O)cc1` [Compound 13-1, 4-hydroxy-2-(pyridazin-3-yl)-N-tosylpyrimidine-5-carboxamide]: the IC50 lay within 100 to 10000 nM.
